Tests used:
Format in all cases: in vivo
[1] = tested on: Horn Fly (Haematobia irritans); assay: Horn Fly (Haematobia irritans) Feed Assay; settings: horn flies fed on treated citrated bovine blood; knockdown and mortality at approximately 2 and 24 hours
Procedure: Horn Fly (Haematobia irritans) Feed Assay
Formula (1) compounds were dissolved in DMSO and aliquots were added to citrated bovine blood in a membrane covered Petri dish. Approximately ten horn flies were placed onto each Petri dish and covered. The flies were allowed to feed on the treated blood cell. Flies were held at approximately 80° F. with a minimum of approximately 50% relative humidity. Flies were examined for knockdown and mortality at approximately 2 and 24 hours. Endpoint data were recorded as a lethal dose 90% (LD^90) in μg/mL.

[2] = tested on: Flea (Ctenocephalides felis); assay: Flea (Ctenocephalides felis) Membrane Feed Assay-Adult; settings: adult fleas fed on treated citrated bovine blood for approximately 2 hours; knockdown and/or death at approximately 2 and 24 hours
Procedure: Flea (Ctenocephalides felis) Membrane Feed Assay-Adult
Formula (1) compounds were dissolved in DMSO and aliquots were added to citrated bovine blood in a membrane covered Petri dish pre-warmed to 37° C. Feeding tubes containing approximately 30-35 adult fleas were placed onto the Petri dishes. The fleas were allowed to feed for approximately 2 hours. […] Endpoint data were recorded as an efficacious dose 80% (ED^80) in μg/mL.

[3] = tested on: Hard Tick Larvae (Rhipicephalus sanquineus); assay: Hard Tick Larvae (Rhipicephalus sanquineus) Whole Organism Contact Assay; settings: tick larvae in coated vials; knockdown examined at approximately 24 and 48 hours
Procedure: Hard Tick Larvae (Rhipicephalus sanquineus) Whole Organism Contact Assay
Formula (1) compounds were dissolved in isopropyl alcohol (IPA) and aliquots were added to vials placed on a roller for at least 2 hours to allow the IPA to evaporate. IPA alone was used as a negative control and fipronil was used as a positive control. Approximately 50-200 tick larvae were added to the vials using a swab and the vials were closed. At approximately 24 and 48 hours, the vials were examined and knockdown was recorded as active. Vials showing knockdown were examined for tick paralysis and/or death at approximately 48 hrs. Endpoint data can be recorded as an effective dose 100% (ED^100) and/or a lethal dose 100% (LD^100) in μg/cm^2.

Row | SMILES | LD^90 (lethal dose 90%) [1] [µg/mL] | ED^80 (efficacious dose 80%) [2] [µg/mL] | ED^100 (effective dose 100%) [3] [μg/cm^2]
1 | CC(C)CC(=O)NCc1cc(C2=NOC(c3cc(Cl)c(Cl)c(Cl)c3)(C(F)(F)F)C2)ccc1F (stereo not shown) [Example 9, N-{2-fluoro-5-[5-(3,4,5-trichlorophenyl)-5-(trifluoromethyl)-4,5-dihydroisoxazol-3-yl]benzyl}-3-methylbutanamide] | 3 |  | 
2 | CC(=O)NCc1cc(C2=NOC(c3cc(Cl)c(F)c(Cl)c3)(C(F)(F)F)C2)ccc1F (stereo not shown) [Example 11, N-{5-[5-(3,5-dichloro-4-fluorophenyl)-5-(trifluoromethyl)-4,5-dihydroisoxazol-3-yl]-2-fluorobenzyl}acetamide] | 3 |  | 
3 | O=C(CC1CC1)NCc1cc(C2=NOC(c3cc(Cl)c(Cl)c(Cl)c3)(C(F)(F)F)C2)ccc1F (stereo not shown) [Example 8, 2-cyclopropyl-N-{2-fluoro-5-[5-(3,4,5-trichlorophenyl)-5-(trifluoromethyl)-4,5-dihydroisoxazol-3-yl]benzyl}acetamide] | 3 |  | 
4 | O=C(NCc1cc(C2=NOC(c3cc(Cl)c(Cl)c(Cl)c3)(C(F)(F)F)C2)ccc1F)C1CCC1 (stereo not shown) [Example 6, N-{2-fluoro-5-[5-(3,4,5-trichlorophenyl)-5-(trifluoromethyl)-4,5-dihydroisoxazol-3-yl]benzyl}cyclobutanecarboxamide] | 3 | 10 | 
5 | CC(C)C(=O)NCc1cc(C2=NOC(c3cc(Cl)c(Cl)c(Cl)c3)(C(F)(F)F)C2)ccc1F (stereo not shown) [Example 4, N-{2-fluoro-5-[5-(3,4,5-trichlorophenyl)-5-(trifluoromethyl)-4,5-dihydroisoxazol-3-yl]benzyl}-2-methylpropanamide] | 1 |  | 
6 | O=C(NCc1cc(C2=NOC(c3cc(Cl)c(Cl)c(Cl)c3)(C(F)(F)F)C2)ccc1F)C1CC1 (stereo not shown) [Example 5, N-{2-fluoro-5-[5-(3,4,5-trichlorophenyl)-5-(trifluoromethyl)-4,5-dihydroisoxazol-3-yl]benzyl}cyclopropanecarboxamide] | 1 | 3 | 
7 | CC(=O)NCc1cc(C2=NOC(c3cc(Cl)c(F)c(Cl)c3)(C(F)(F)F)C2)ccc1Cl (stereo not shown) [Example 17, N-{2-chloro-5-[5-(3,5-dichloro-4-fluorophenyl)-5-(trifluoromethyl)-4,5-dihydroisoxazol-3-yl]benzyl}acetamide] | 1 |  | 
8 | CC(=O)NCc1cc(C2=NOC(c3cc(Cl)c(Cl)c(Cl)c3)(C(F)(F)F)C2)ccc1Br (stereo not shown) [Example 18, N-(2-bromo-5-(5-(3,4,5-trichlorophenyl)-5-(trifluoromethyl)-4,5-dihydroisoxazol-3-yl)benzyl)acetamide] | 1 | 10 | 
9 | CCC(=O)NCc1cc(C2=NOC(c3cc(Cl)c(Cl)c(Cl)c3)(C(F)(F)F)C2)ccc1F (stereo not shown) [Example 7, N-{2-fluoro-5-[5-(3,4,5-trichlorophenyl)-5-(trifluoromethyl)-4,5-dihydroisoxazol-3-yl]benzyl}propanamide] | 1 | 10 | 
10 | CC(=O)NCc1cc(C2=NOC(c3cc(Cl)c(Cl)c(Cl)c3)(C(F)(F)F)C2)ccc1F (stereo not shown) [Example 3, N-{5-[5-(3,4,5-trichlorophenyl)-5-(trifluoromethyl)-4,5-dihydroisoxazol-3-yl]-2-fluorobenzyl}acetamide] | 10 | 3 | 
11 | O=C(NCc1cc(C2=NOC(c3cc(Cl)c(F)c(Cl)c3)(C(F)(F)F)C2)ccc1F)C1CC(F)(F)C1 (stereo not shown) [Example 13, N-{5-[5-(3,5-dichloro-4-fluorophenyl)-5-(trifluoromethyl)-4,5-dihydroisoxazol-3-yl]-2-fluorobenzyl}-3,3-difluorocyclobutanecarboxamide] |  | 3 | 
12 | CCNC(=O)CC(=O)NCc1cc(C2=NOC(c3cc(Cl)c(Cl)c(Cl)c3)(C(F)(F)F)C2)ccc1F (stereo not shown) [Example 1, N-ethyl-N′-{2-fluoro-5-[5-(3,4,5-trichloro-phenyl)-5-trifluoromethyl-4,5-dihydro-isoxazol-3-yl]-benzyl}-malonamide] |  |  | 10.0
13 | O=C(CC(=O)NCC1CC1)NCc1cc(C2=NOC(c3cc(Cl)c(Cl)c(Cl)c3)(C(F)(F)F)C2)ccc1F (stereo not shown) [Example 2, N-Cyclopropylmethyl-N′-{2-fluoro-5-[5-(3,4,5-trichloro-phenyl)-5-trifluoromethyl-4,5-dihydro-isoxazol-3-yl]-benzyl}-malonamide] |  |  | 10.0
14 | O=C(NCc1cc(C2=NOC(c3cc(Cl)c(F)c(Cl)c3)(C(F)(F)F)C2)ccc1F)C1CC1 (stereo not shown) [Example 12, N-{5-[5-(3,5-dichloro-4-fluorophenyl)-5-(trifluoromethyl)-4,5-dihydroisoxazol-3-yl]-2-fluorobenzyl}cyclopropanecarboxamide] |  | 3 | 
